Measurements taken from PubChem BioAssay (NCI).
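A five-concentration, 48-hour dose response in 96-well plates underlies each endpoint, interpolated linearly between surrounding concentrations. TGI is the concentration that stops growth completely.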

Assays:
Assay in all cases: NCI-60 cell line screen, 48 h
DMS 114 small cell lung = system: DMS 114 small cell lung
DMS 273 small cell lung = system: DMS 273 small cell lung
HOP-62 NSCLC = system: HOP-62 NSCLC
HOP-92 NSCLC = system: HOP-92 NSCLC
LOX IMVI melanoma = system: LOX IMVI melanoma
M19-MEL melanoma = system: M19-MEL melanoma
MALME-3M melanoma = system: MALME-3M melanoma
OVCAR-8 ovarian = system: OVCAR-8 ovarian
RXF 393 renal = system: RXF 393 renal
SNB-78 CNS = system: SNB-78 CNS
UO-31 renal = system: UO-31 renal
CAKI-1 renal = system: CAKI-1 renal

Measured: TGI

COC(=O)/C=C(\C(=O)OC)c1c2c3c(cc(OC)c(OC)c3c3ccccc13)CCN2C
76.7 µM: HOP-62 NSCLC
50.9 µM: DMS 273 small cell lung
80.7 µM: DMS 114 small cell lung
not listed: CAKI-1 renal
> 100 µM: all other assays above

CC1=NOC(=O)/C1=C/c1cccc2ccccc12
> 100 µM: all assays above

NS(=O)(=O)c1ccc(NC2=CC(=O)C(=O)c3ccccc32)cc1
> 100 µM: all assays above

Cc1ccc(NC(=O)C(=O)C(C#N)c2nc(-c3ccc(-c4ccccc4)cc3)cs2)c(C)c1 (centres undefined)
> 1 µM: HOP-92 NSCLC
> 100 µM: all other assays above

CCCCCCCCCCCCCC(=O)OCC1OC(n2cc(F)c(=O)[nH]c2=O)C(NC(=O)OCc2ccccc2)C(OC(=O)CCCCCCCCCCCCC)C1O (centres undefined)
> 100 µM: all assays above
